Experimental data: patent publication US7674807B2, “Heterocycle-substituted n-phenyl-phthalamide derivatives, related compounds and their use as insecticides” (Bayer CropScience AG, priority 2004, dated 2010)

How the values were obtained:
[1] = test system: larva of Cnaphalocrocis medinalis Guenee; assay: Test against larva of Cnaphalocrocis medinalis Guenee (sprayed paddy rice foliage); assay type: in vivo; conditions: 20 ppm concentration of the active component; second instar larvae; counted after 7 days; 25° C.
Protocol: Paddy rice (variety: Tamanishiki) planted in a pot was treated by spraying 50 ml per pot of the diluted aqueous solution of the prescribed concentration of the active compound prepared in the same manner as in the above-mentioned Biological Test Example 1. After the treated rice plant was dried in the air, their foliage part was cut in 4-5 cm length, which were put in a dish with 9 cm diameter with a sheet of filter paper and 2 ml of water. Five larvae of Cnaphalocrocis medinalis Guenee at the second instar were put in the dish that was placed in a room at the constant temperature of 25° C. After 2 and 4 days, each rest (each ⅓ amount) of foliage parts of rice plant were cut in the same manner and added to the dish. After 7 days the number of dead larvae was counted and the rate of death was calculated. In this test the results of 2 dishes at 1 section were averaged.

[2] = test system: larva of Spodoptera litura; assay: Test against larva of Spodoptera litura (leaf dip, sweet potato leaves); assay type: in vivo; conditions: 20 ppm concentration of the active component; third instar larvae; counted after 7 days; 25° C.
Protocol: Preparation of Test Solution:
In order to make an appropriate formulation of an active compound, 1 part by weight of the active compound was mixed with the above-mentioned amount of solvent containing the above-mentioned amount of emulsifier and the mixture was diluted with water to a prescribed concentration.
Leaves of sweet potato were soaked in the test solution diluted to a prescribed concentration with water, dried in the air and put in a dish of 9 cm diameter.
10 larvae of Spodoptera litura at the third instar were placed on the leaves and kept in a room at the constant temperature of 25° C. After 2 and 4 days further leaves of sweet potato were added and after 7 days the number of dead larvae was counted and the rate of death was calculated.
In this test the results of 2 dishes at 1 section were averaged.

Row | SMILES | controlling effect, rate of death [1] [%] | controlling effect, rate of death [2] [%]
1 | Cc1cc(Cn2nc(C(F)(F)F)cc2C(F)(F)F)ccc1NC(=O)c1cccc(Cl)c1C(=O)NC(C)C[S+](C)[O-] (mixture of isomers) [compound 13] | 100 | 100
2 | Cc1cc(Cn2nc(C(F)(F)F)cc2C(F)(F)F)ccc1NC(=O)c1cccc(Cl)c1C(=O)NC(C)C[S+](C)[O-] (mixture of isomers) [compound 14] | 100 | 100
3 | Cc1cc(Cn2nc(C(F)(F)F)cc2C(F)(F)F)ccc1NC(=O)c1cccc(Br)c1C(=O)NC(C)C[S+](C)[O-] (mixture of isomers) [compound 51] | 100 | 100
4 | Cc1cc(Cn2nc(C(F)(F)F)cc2C(F)(F)F)ccc1NC(=O)c1cccc(I)c1C(=O)NC(C)C[S+](C)[O-] (mixture of isomers) [compound 87] | 100 | 100
5 | Cc1cc(Cn2nc(C(F)(F)F)cc2C(F)(F)F)ccc1NC(=O)c1cccc(I)c1C(=O)NC(C)C[S+](C)[O-] (mixture of isomers) [compound 88] | 100 | 100
6 | Cc1cc(Cn2nc(C(F)(F)F)cc2C(F)(F)F)ccc1NC(=O)c1cccc(Cl)c1C(=O)NC(C)(C)C[S+](C)[O-] (racemic) [compound 9] | 100 | 100
7 | CSCC(C)NC(=O)c1c(Cl)cccc1C(=O)Nc1ccc(Cn2nc(C(F)(F)F)cc2C(F)(F)F)cc1C (racemic) [compound 11] | 100 | 100
8 | Cc1cc(Cn2nc(C(F)(F)F)cc2C(F)(F)F)ccc1NC(=O)c1cccc(Cl)c1C(=O)NC(C)CS(C)(=O)=O (racemic) [compound 15] | 100 | 100
9 | CSCC(C)NC(=O)c1c(Br)cccc1C(=O)Nc1ccc(Cn2nc(C(F)(F)F)cc2C(F)(F)F)cc1C (racemic) [compound 48] | 100 | 100
10 | Cc1cc(Cn2nc(C(F)(F)F)cc2C(F)(F)F)ccc1NC(=O)c1cccc(Br)c1C(=O)NC(C)CS(C)(=O)=O (racemic) [compound 52] | 100 | 100
11 | CSCC(C)NC(=O)c1c(I)cccc1C(=O)Nc1ccc(Cn2nc(C(F)(F)F)cc2C(F)(F)F)cc1C (racemic) [compound 85] | 100 | 100
12 | Cc1cc(Cn2nc(C(F)(F)F)cc2C(F)(F)F)ccc1NC(=O)c1cccc(I)c1C(=O)NC(C)CS(C)(=O)=O (racemic) [compound 89] | 100 | 100
13 | CSCC(C)NC(=O)c1c(I)cccc1C(=O)Nc1ccc(Cn2nc(C(F)(F)F)cc2OC(F)F)cc1C (racemic) [compound 103] | 100 | 100
14 | Cc1cc(Cn2nc(C(F)(F)F)cc2OC(F)F)ccc1NC(=O)c1cccc(I)c1C(=O)NC(C)CS(C)(=O)=O (racemic) [compound 107] | 100 | 100
15 | CSCC(C)(C)NC(=O)c1c(Cl)cccc1C(=O)Nc1ccc(Cn2nc(C(F)(F)F)cc2C(F)(F)F)cc1C [compound 8] | 100 | 100
16 | Cc1cc(Cn2nc(C(F)(F)F)cc2C(F)(F)F)ccc1NC(=O)c1cccc(Cl)c1C(=O)NC(C)(C)CS(C)(=O)=O [compound 10] | 100 | 100
17 | CSCC(C)NC(=O)c1c(Cl)cccc1C(=O)Nc1ccc(Cn2nc(C(F)(F)F)cc2C(F)(F)F)cc1C (centres unmarked) [compound 12] | 100 | 100

Row | SMILES | controlling effect, rate of death [1] [%] | controlling effect, rate of death [2] [%]
18 | Cc1cc(Cn2nc(C(F)(F)F)cc2C(F)(F)F)ccc1NC(=O)c1cccc(Cl)c1C(=O)NC(C)CS(C)(=O)=O (centres unmarked) [compound 16] | 100 | 100
19 | CSCC(C)(C)NC(=O)c1c(Br)cccc1C(=O)Nc1ccc(Cn2nc(C(F)(F)F)cc2C(F)(F)F)cc1C [compound 45] | 100 | 100
20 | Cc1cc(Cn2nc(C(F)(F)F)cc2C(F)(F)F)ccc1NC(=O)c1cccc(Br)c1C(=O)NC(C)(C)CS(C)(=O)=O [compound 47] | 100 | 100
21 | CSCC(C)NC(=O)c1c(Br)cccc1C(=O)Nc1ccc(Cn2nc(C(F)(F)F)cc2C(F)(F)F)cc1C (centres unmarked) [compound 49] | 100 | 100
22 | Cc1cc(Cn2nc(C(F)(F)F)cc2C(F)(F)F)ccc1NC(=O)c1cccc(Br)c1C(=O)NC(C)CS(C)(=O)=O (centres unmarked) [compound 53] | 100 | 100
23 | Cc1cc(Cn2nc(C(F)(F)F)cc2C(F)(F)F)ccc1NC(=O)c1cccc(I)c1C(=O)NC(C)C [compound 81] | 100 | 100
24 | CSCC(C)(C)NC(=O)c1c(I)cccc1C(=O)Nc1ccc(Cn2nc(C(F)(F)F)cc2C(F)(F)F)cc1C [compound 82, N^1-[4-(3,5-bistrifluoromethylpyrazol-1-ylmethyl)-2-methylphenyl]-N^2-(1,1-dimethyl-2-methylsulfanylethyl)-3-iodophthalamide] | 100 | 100
25 | Cc1cc(Cn2nc(C(F)(F)F)cc2C(F)(F)F)ccc1NC(=O)c1cccc(I)c1C(=O)NC(C)(C)C[S+](C)[O-] (centres unmarked) [compound 83, N^1-{4-[3,5-bis(trifluoromethyl)-1H-pyrazol-1-ylmethyl]-2-methylphenyl}-N^2-(2-methanesulfinyl-1,1-dimethylethyl)-3-iodophthalamide] | 100 | 100
26 | Cc1cc(Cn2nc(C(F)(F)F)cc2C(F)(F)F)ccc1NC(=O)c1cccc(I)c1C(=O)NC(C)(C)CS(C)(=O)=O [compound 84, N^1-{4-[3,5-bis(trifluoromethyl)-1H-pyrazol-1-ylmethyl]-2-methylphenyl}-3-iodo-N^2-(2-methanesulfonyl-1,1-dimethylethyl)phthalamide] | 100 | 100
27 | CSCC(C)NC(=O)c1c(I)cccc1C(=O)Nc1ccc(Cn2nc(C(F)(F)F)cc2C(F)(F)F)cc1C (centres unmarked) [compound 86] | 100 | 100
28 | Cc1cc(Cn2nc(C(F)(F)F)cc2C(F)(F)F)ccc1NC(=O)c1cccc(I)c1C(=O)NC(C)CS(C)(=O)=O (centres unmarked) [compound 90] | 100 | 100
29 | CCSCC(C)NC(=O)c1c(I)cccc1C(=O)Nc1ccc(Cn2nc(C(F)(F)F)cc2C(F)(F)F)cc1C (centres unmarked) [compound 91] | 100 | 100
30 | CCS(=O)(=O)CC(C)NC(=O)c1c(I)cccc1C(=O)Nc1ccc(Cn2nc(C(F)(F)F)cc2C(F)(F)F)cc1C (centres unmarked) [compound 93] | 100 | 100
31 | CSCC(C)NC(=O)c1c(OS(C)(=O)=O)cccc1C(=O)Nc1ccc(Cn2nc(C(F)(F)F)cc2C(F)(F)F)cc1C (centres unmarked) [compound 128] | 100 | 100
32 | Cc1cc(Cn2nc(C(F)(F)F)cc2C(F)(F)F)ccc1NC(=O)c1cccc(OS(C)(=O)=O)c1C(=O)NC(C)CS(C)(=O)=O (centres unmarked) [compound 132] | 100 | 100
33 | CSCC(C)(C)NC(=O)c1c(Cl)cccc1C(=O)Nc1ccc(Cn2nc(C(F)(F)F)nc2C(F)(F)F)cc1C [compound 137] | 100 | 100
34 | Cc1cc(Cn2nc(C(F)(F)F)nc2C(F)(F)F)ccc1NC(=O)c1cccc(Cl)c1C(=O)NC(C)(C)C[S+](C)[O-] (centres unmarked) [compound 138] | 100 | 100
